Reference: ChEMBL document CHEMBL5126521, “Analgesic Opioid Ligand Discovery Based on Nonmorphinan Scaffolds Derived from Natural Sources” (J Med Chem, 2022)
Square brackets hold non-standard residues; d marks the D form. Peptide text beside a SMILES is read from it. Sar = CNCC(=O)O

Legend:
Mu-type opioid receptor [1] = target: T1, Mu-type opioid receptor (Homo sapiens, UniProt P35372); assay: Binding affinity to MOP (unknown origin)
Rattus norvegicus [2] = assay: Antinociceptive activity in rat administered IT; assay type: functional
[3] = target: T2, Delta-type opioid receptor (Homo sapiens, UniProt P41143); assay: Binding affinity to DOP (unknown origin)
Mus musculus [4] = assay: Antinociceptive activity in mechanical allodynia mouse model administered sc; assay type: functional
Mus musculus [5] = assay: Antinociceptive activity in thermal hyperalgesia mouse model administered sc; assay type: functional
Mu-type opioid receptor [6] = target: T3, Mu-type opioid receptor (Mus musculus, UniProt P42866); assay: Antagonist activity at mouse vas deferns MOP; assay type: functional
[7] = target: Mu-type opioid receptor (Cavia porcellus) (UniProt P97266); assay: (§1) Antagonist activity at guinea pig ileum MOP; assay type: functional, tissue-based; conditions: filed as antagonist
Mu-type opioid receptor [8] = target: T4, Mu-type opioid receptor (Cavia porcellus, UniProt P97266); assay: as §1; assay type: functional, tissue-based
Rattus norvegicus [9] = species on record: Rattus norvegicus; assay: Antinociceptive activity in rat; assay type: functional
[10] = Displacement of [3H]DPDPE from calf frontal cortex membrane Delta-type opioid receptor by competitive binding assay; assay type: cell membranes, Bos taurus
Mus musculus [11] = assay: Antinociceptive activity in mouse administered po; assay type: functional
[12] = Toxicity in rat assessed as inhibition of gastrointestinal transit at 100 to 300 pmol icv or IT by charcoal meal test; conditions: in vivo, icv_or_intrathecal, dose 100-300 pmol
[13] = target: T5, Kappa-type opioid receptor (Cavia porcellus, UniProt P41144); assay: Displacement of [3H]U69593 from guinea pig cerebellum KOP by competitive binding assay; assay type: tissue-based
Rattus norvegicus [14] = assay: Antinociceptive activity in rat administered iv; assay type: functional
Rattus norvegicus [15] = assay: Antinociceptive activity in rat administered sc; assay type: functional
Mus musculus [16] = assay: Antinociceptive activity in mouse administered IT; assay type: functional
Mu-type opioid receptor [17] = target: Mu-type opioid receptor (Bos taurus, UniProt P79350); assay: Displacement of [3H]DAMGO from calf thalamus membrane MOP by competitive binding assay; assay type: cell membranes
Mus musculus [18] = species on record: Mus musculus; assay: Antinociceptive activity in mouse […]; assay type: functional; conditions: time 2 hrs
[19] = target: Kappa-type opioid receptor (Mus musculus, UniProt P33534); assay: Displacement of [3H]U-69593 from mouse spinal cord KOP measured after 60 mins by liquid scintillation counter analysis; assay type: tissue-based
Mus musculus [20] = assay: Antinociceptive activity in mouse administered sc by tail pressure test; assay type: functional
Mu-type opioid receptor [21] = target: T3, Mu-type opioid receptor; assay: Displacement of [3H]DAMGO from mouse spinal cord MOP measured after 60 mins by liquid scintillation counter analysis; assay type: tissue-based
[22] = target: Delta-type opioid receptor (Mus musculus, UniProt P32300); assay: Displacement of [3H]deltorphin-II from mouse spinal cord DOP measured after 60 mins by liquid scintillation counter analysis; assay type: tissue-based
Mus musculus [23] = assay: Antinociceptive activity in mouse administered po by tail pressure test; assay type: functional
[24] = Toxicity in rat assessed as antinociceptive activity tolerance at 3 to10 nmol/kg measured after 5 days with 62 pmol/h icv infusion relative to control; conditions: in vivo, icv_or_intrathecal, 120 h, at 10 nmol/kg, time 5 day
Mus musculus [25] = assay: Antinociceptive activity in mouse administered iv by hot plate test; assay type: functional
Mu-type opioid receptor [26] = target: T3, Mu-type opioid receptor; assay: Antagonist activity at mouse brain homogenate MOP; assay type: functional, tissue-based
Mus musculus [27] = assay: Antinociceptive activity in mouse administered icv; assay type: functional
Rattus norvegicus [28] = assay: Antinociceptive activity in rat administered icv; assay type: functional
Mus musculus [29] = assay: Antinociceptive activity in mouse administered IV; assay type: functional
Mus musculus [30] = species on record: Mus musculus; assay: Antinociceptive activity in mouse by tail pressure test; assay type: functional
Mu-type opioid receptor [31] = target: T1, Mu-type opioid receptor; assay: Agonist activity at MOP (unknown origin) stably expressed in HEK293 cells assessed as forskolin stimulated cAMP accumulation incubated for 30 mins by radioactivity based scintillation counter analysis; assay type: functional, cell-based
[32] = Stability in mouse brain homogenate assessed as half life; assay type: ADME, tissue-based
[33] = Stability in mouse serum assessed as half life; assay type: ADME, cell-free
Mu-type opioid receptor [34] = target: T1, Mu-type opioid receptor; assay: Displacement of [3H]DAMGO from MOP (unknown origin) stably expressed in HEK293 cells by liquid scintillation counter analysis; assay type: cell-based
[35] = target: T2, Delta-type opioid receptor; assay: Displacement of [3H]DPDPE from DOP (unknown origin) stably expressed in HEK293 cells by liquid scintillation counter analysis; assay type: cell-based
Mus musculus [36] = assay: Antinociceptive activity in Kunming mouse assessed tail flick response in warm water administered icv; assay type: functional
Mu-type opioid receptor [37] = target: T1, Mu-type opioid receptor; assay: Agonist activity at MOP (unknown origin) stably expressed in HEK293 cells assessed as forskolin stimulated cAMP accumulation incubated for 30 mins by radioactivity based scintillation counter analysis relative to control; assay type: functional, cell-based; conditions: filed as agonist
Mus musculus [38] = assay: Antinociceptive activity in Kunming mouse assessed as tail flick response in warm water administered iv; assay type: functional
Mu-type opioid receptor [39] = target: T4, Mu-type opioid receptor; assay: Displacement of [3H]DAMGO from guinea pig brain membrane MOP incubated for 1 hr by scintillation counter analysis; assay type: cell membranes
Mu-type opioid receptor [40] = target: Mu-type opioid receptor (Rattus norvegicus, UniProt P33535); assay: Agonist activity at recombinant rat MOP stably expressed in CHO-K1 cell membrane assessed as [35S]GTPgammaS binding; assay type: functional, cell membranes
[41] = Toxicity in sc dosed mouse assessed as antinociceptive activity tolerance; assay type: organism-based; conditions: in vivo
[42] = Displacement of [3H]DPDPE from guinea pig brain membrane DOP incubated for 2.5 hr by scintillation counter analysis; assay type: cell membranes, Cavia porcellus
Mus musculus [43] = assay: Antinociceptive activity in sc dosed mouse; assay type: functional
[44] = target: Delta-type opioid receptor (Rattus norvegicus, UniProt P33533); assay: Agonist activity at recombinant rat DOP stably expressed in CHO-K1 cell membrane assessed as [35S]GTPgammaS binding; assay type: functional, cell membranes
[45] = target: T5, Kappa-type opioid receptor; assay: Displacement of [3H]U69593 from guinea pig brain membrane KOP incubated for 1 hr by scintillation counter analysis; assay type: cell membranes
Mus musculus [46] = assay: Antinociceptive activity in po dosed mouse by tail flick assay; assay type: functional
[47] = Toxicity in po dosed mouse assessed as antinociceptive activity tolerance by tail flick assay; assay type: organism-based; conditions: in vivo
Mus musculus [48] = assay: Antinociceptive activity in mouse administered IT by tail pressure test; assay type: functional

NCCCC[C@H](NC(=O)[C@H](Cc1ccccc1)NC(=O)[C@@H](CCCN=C(N)N)NC(=O)[C@@H](N)Cc1ccc(O)cc1)C(N)=O
Ki (Mu-type opioid receptor [1]): 0.14 nM
ED50 (Rattus norvegicus [2]): 2.37 pmol
Ki [3]: 19200 nM
ED50 (Mus musculus [4]): 4.2 pmol
ED50 (Mus musculus [5]): 0.06 pmol
IC50 (Mu-type opioid receptor [6]): 781 nM

CN(CC(=O)O)C(=O)[C@H](Cc1ccccc1)NC(=O)[C@@H](CCCN=C(N)N)NC(=O)[C@@H](N)Cc1ccc(O)cc1 (H-Y[dR]F[Sar]-OH)
IC20 [7]: 21 nM
IC50 (Mu-type opioid receptor [8]): 6.9 nM
ED50 (Rattus norvegicus [9]): 4.1 pmol
ED50 (Rattus norvegicus [2]): 18 pmol
Ki [10]: 562 nM
ED50 (Mus musculus [11]): 26 µmol/kg
ED50 [12]: 0.053 mg/kg
Ki [13]: > 10000 nM
ED50 (Rattus norvegicus [14]): 0.8 µmol/kg
ED50 (Rattus norvegicus [15]): 0.61 mg/kg
ED50 (Mus musculus [16]): 4.5 pmol
Ki (Mu-type opioid receptor [17]): 0.5 nM

CN(CCC(=O)O)C(=O)[C@H](Cc1ccccc1)NC(=O)[C@@H](CCCNC(=N)N)NC(=O)[C@H](Cc1ccc(O)cc1)NC(=N)N
ED50 (Mus musculus [18]): 0.07 mg/kg
Ki [19]: > 1000 nM
ED50 (Mus musculus [20]): 0.09 mg/kg
Ki (Mu-type opioid receptor [21]): 12.9 nM
Ki [22]: > 1000 nM
ED50 (Mus musculus [23]): 5.8 mg/kg

C[C@@H](NC(=O)[C@@H](N)Cc1ccc(O)cc1)C(=O)N[C@@H](Cc1ccccc1)C(=O)NCC(=O)N[C@@H](Cc1ccc(O)cc1)C(=O)N1CCC[C@H]1C(=O)N[C@@H](CO)C(N)=O [DERMORPHIN]
Activity [24]: 63%
ED50 (Mus musculus [25]): 1 µmol/kg
IC50 (Mu-type opioid receptor [8]): 1.1 nM
ED50 (Rattus norvegicus [9]; Rattus norvegicus, read-out: ED50): 1.5 µmol/kg
IC50 (Mu-type opioid receptor [26]): 0.76 nM
ED50 (Mus musculus [27]): 6.7 pmol
IC50 (Mu-type opioid receptor [6]): 16.5 nM
ED50 (Rattus norvegicus [28]): 23 pmol
ED50 (Mus musculus [29]): 0.46 µmol/kg
ED50 (Mus musculus [30]; Mus musculus, read-out: ED50): 4.6 µmol/kg

C=C(C(N)=O)[C@@H](NC(=O)[C@H](Cc1c[nH]c2ccccc12)NC(=O)[C@@H](C)N(C)C(=O)[C@@H](N)Cc1c(C)cc(O)cc1C)c1ccco1
EC50 (Mu-type opioid receptor [31]): 0.0018 nM
half-life [32]: ≥ 5 h
half-life [33]: ≥ 5 h
Ki (Mu-type opioid receptor [34]): 0.011 nM
Ki [35]: 33.3 nM
ED50 (Mus musculus [36]): 0.000695 µmol/kg
Emax (Mu-type opioid receptor [37]): 98.3%
ED50 (Mus musculus [38]): 0.382 mg/kg

N=C(N)NCCC[C@@H](NC(=O)[C@@H](N)Cc1ccc(O)cc1)C(=O)N[C@@H](Cc1ccccc1)C(N)=O
IC50 (Mu-type opioid receptor [8]): 240 nM
ED50 (Mus musculus [20]): 1 µmol/kg
ED50 (Mus musculus [27]): 210 pmol
ED50 (Mus musculus [23]): 103 µmol/kg

CC[C@@H]1CN2CC[C@]3(O)c4c(cccc4OC)N[C@@H]3[C@@H]2C[C@@H]1/C(=C\OC)C(=O)OC
Ki (Mu-type opioid receptor [39]): 6.4 nM
EC50 (Mu-type opioid receptor [40]): 250 nM
ED50 [41]: 0.35 mg/kg
Ki [42]: 16 nM
ED50 (Mus musculus [43]): 0.3 mg/kg
EC50 [44]: 1490 nM
Ki [45]: 55 nM
ED50 (Mus musculus [46]): 1.3 mg/kg
ED50 [47]: 2.2 mg/kg

N=C(N)NCCC[C@@H](NC(=O)[C@@H](N)Cc1ccc(O)cc1)C(=O)N[C@@H](Cc1ccccc1)C(=O)NCC(=O)O (H-Y[dR]FG-OH)
IC50 (Mu-type opioid receptor [8]): 10.8 nM
ED50 (Mus musculus [48]): 1 pmol
ED50 (Mus musculus [27]): 10.3 pmol
ED50 (Mus musculus [30]): 5.8 pmol
